These results are taken from patent US11744853B2, “Method of administration and treatment” (Dyve Biosciences, Inc., priority 2017, dated 2023).

The test system of one experiment is MCF-7 tumors. In words: MCF-7 tumor growth in SCID mice, doxorubicin with oral or topical bicarbonate (Example 9). The class given is in vivo. To be noted: B doxorubicin 1.6 mg/kg i.p. days 3, 7, 11; C oral 200 mM bicarbonate; D oral bicarbonate + doxorubicin; E topical formulation 150 μL/day; F topical + doxorubicin.
Another experiment deals with MCF-7 cells. Description: Doxorubicin uptake and cytotoxicity in MCF-7 cells at medium pH 6.8 or 7.4 (Example 9). The class given is cell-based.

Protocol for MCF-7 cells: Medium pH was buffered using non-volatile buffers (10 mM MES, 20 mM HEPES and 10 mM TRICINE) in combination with bicarbonate concentrations that were adjusted to be in equilibrium with 5% ambient carbon dioxide. Twenty-four hours later, regular growth medium was replaced and cells allowed to grow a subsequent 72 h, after which time they were fixed and stained with crystal violet for determination of cell number.
Description for MCF-7 tumors: The start of the bicarbonate treatment was designated as day 1. […] On day 15, animals in Groups C and D were placed back on normal drinking water and animals in Groups E and F ceased received t.i.d. topical applications.
Tumor volumes and animal weights were monitored every 2 days.

Regarding doxorubicin, the “reduction in tumor growth rate” value in the experiment with MCF-7 tumors is approximately 30%. The “increase in intracellular doxorubicin concentrations on raising the pHe from 6.8 to 7.4” value in the experiment on MCF-7 cells (14C doxorubicin) is 2.56 fold. Further, the “enhancement of cytotoxicity on raising the pHe from 6.8 to 7.4” value with MCF-7 cells (24 h exposure, crystal violet after a subsequent 72 h) was found to be 2.25 fold.
